The subject of one assay is CD34^+ cells. The experiment in a line: Viable cell expansion in CD34+ liquid cultures (trypan blue exclusion). The class given is cell-based, human. From the text:
Cell Source: UCB was collected, following informed consent of the parents and with the approval of the Sourasky Medical Center Ethics Committee, as previously described [Grisaru et al. (1999a) Am. J. Obstet. Gynecol, 180, 1240–1243]. Following 1:1 (v/v) dilution in Iscove's modified Dulbecco medium (IMDM, Beit Haemek, Israel), mononuclear cells were separated using 3% gelatin (Difco, Detroit, Mich.) and Ficoll-Hypaque gradients (<1.077 g/ml; Pharmacia, Uppsala, Sweden) [Pick et al. (1998) Br. J. Haematol. 103, 639–50]. CD34^+ cells were enriched using CD34 immunoglobulin-coated magnetic beads (CD34 progenitor cell selection system, Dynal, Norway).CD34^+ cells analysis was performed by flow cytometry (Becton Dickinson Immunocytochemistry System Inc., San Jose, Calif.), using CD34-PE (Becton Dickinson Immunocytometry System, Inc.) and CD45-FITC (Dako, Glostrup, Denmark) monoclonal antibodies. […] Liquid Cultures: UCB CD34^+ cells were set for liquid cultures at a concentration of 10^5/mL in IMDM, containing 10% autologous plasma, 2 mM L-glutamine (Sigma Chemical Co., St Louis, Mo.), penicillin ([…]), streptomycin ([…]), amphotericin B (2×10^−5 M) (Sigma Chemical Co.), and heparin (20 IU/mL, Gibco, Grand Island, N.Y.), all in a fully humidified atmosphere at 37° C. and 5% CO2. The following elements were added where noted: • 1. Hematopoietic growth factors: Interleukin 3 (IL3, 5 ng/mL, Immunex, Seattle, Wash.), interleukin 6 (IL6, 50 ng/mL, R&D Systems, Minneapolis, Minn.), TPO (1 ng/mL, R&D Systems), stem cell factor (SCF, 10 ng/mL, R&D Systems), FLT-3 ligand (FLT3, 50 ng/mL, R&D Systems), granulocyte-macrophage colony stimulating factor (GM-CSF, 50 ng/mL, Biogenesis Ltd, Bournemouth, UK) and combinations of the above, for 24 hr to 28 days (supplemented every 4 days). • 2. Endothlial Growth factors: Epidermal growth factor (EGF 10 ng/ml, Sigma Chemical Co.), basic Fibroblast growth factor (bFGF 20 ng/ml, Sigma Chemical Co.) incubated in a serum free medium (SFM) for 48 hr. • 3. […] AChE C-terminal peptides: The following C-terminal peptides of the AChE synaptic (ASP, also denoted SEQ ID: No. 2) and readthrough (ARP, also denoted SEQ ID: No. 1) isoforms were synthesized using a 433A peptide synthesizer (PE Applied Biosystems, Inc., Norwalk, Conn.). • ASP: 1-[…]-40, also denoted as SEQ ID: No. 2. • ARP: 1-[…]-26, also denoted as SEQ ID: No. 1. […]

The test system of a further assay is developing mouse brain. Briefly: BrdU labeling in developing brain after injection of pregnant mouse. Type of assay: in vivo. As to conditions: peptide 0.1 mg/Kg into pregnant mouse; BrdU 24 hr later. An excerpt:
After 1 hr the embryo was isolated and fixed.
Embryonic neuroepithelial cells have one of two fates: (1) to continue proliferation and migration up and down from the ventricular zone up to the cortical plate, or (2) to quit the proliferative cycle and initiate terminal differentiation. The balance between these two processes determines the number of proliferating neuronal progenitors as well as the thickness of the cortical plate where post-mitotic neurons accumulate (see scheme at FIG. 10).

Take “ASP (DTLDEAERQWKAEFHRWSSYMVHWKNQFDHYSKQDRCSDL)”: the Total viable cells in the assay with CD34^+ cells (day 14, seeded at 50,000 cells/well, ARP 2 nM, cortisol 1.2 μM, ASP 2 nM, SCF 50 ng/ml, AS1 20 pM, PBAN 2 nM) is listed as 100.0 cells per culture × 10^−3. The “promotion of cell expansion compared with ARP” value in the assay with CD34^+ cells (similar doses, alone or with cytokines, 2 weeks) was “less effective than ARP”. Also, the “neuronal proliferation (BrdU labeled nuclei) in embryonic brain” value in the assay on developing mouse brain is “minor positive effect”.

For the origin of these results see US7067486B2, “Acetylcholinesterase-derived peptides and uses thereof” (priority 1999, dated 2006).
